Experimental data: patent US20070275382A1, “Biomarkers for the Efficacy of Somatostatin Analogue Treatment” (priority 2003, published 2007)
*1 amine or outer side, *2 acyl side, *3 side chain or, on linkers, in order; H or OH if unused. Where a SMILES comes first, the peptide text is derived from it. Side-chain parts run from the residue outwards. [ ]: non-standard residue; d: D form. The star is where a group is joined. Ethylenediamine = C(CN[*:2])N[*:1]; Hyp = O=C(O)[CH]1C[CH](O)CN1; Phg = N[CH](C(=O)O)c1ccccc1; CO = O=C([*:1])[*:2]; Bn = c1ccc(C*)cc1

Test system: Liver left lateral lobe
Experiment: Microarray gene expression profiling (HG-U95A), liver
Type: in vivo, cynomolgus monkeys
Protocol: Origin of tissue and processing. Male and female cynomolgus monkeys received subcutaneously pasireotide (100 μg/animal/day) or the vehicle for 14 days. On day 15, all animals were sacrificed and tissues for RNA extraction were immediately snap-frozen and kept at −80° C. until processing.
RNA expression profiling was conducted by means of the HG-U95A gene expression probe array (Affymetrix; Santa Clara, Calif. USA), containing more than 12,600 probe sets interrogating primarily full-length human genes and also some control probe sets. The experiment was conducted according to the recommendations of the manufacturer. Briefly, total RNA was obtained by acid guanidinium thiocyanate-phenol-chloroform extraction (Trizol®, Invitrogen Life Technologies, San Diego, Calif. USA) from each frozen tissue section. The total RNA was then purified on an affinity resin (Rneasy®, Qiagen) and quantified. Double stranded cDNA was synthesized with a starting amount of approximately 5 μg full-length total RNA using the Superscript® Choice System (Invitrogen Life Technologies, Carlsbad, Calif. USA) in the presence of a T7-(dT)24 DNA oligonucleotide primer. Following synthesis, the cDNA was purified by phenol/chloroform/isoamyl alcohol extraction and ethanol precipitation. The purified cDNA was then transcribed in vitro using the BioArray® High Yield RNA Transcript Labeling Kit (ENZO, Farmingdale, N.Y. USA) in the presence of biotinylated ribonucleotides form biotin labelled cRNA. The labelled cRNA was then purified on an affinity resin (Rneasy®, Qiagen), quantified and fragmented. An amount of approximately 10 μg labelled cRNA was hybridized for 16 hours at 45° C. to an expression probe array. The array was then washed and stained twice with streptavidin-phycoerythrin (Molecular Probes,) using the GeneChip® Fluidics Workstation 400 (Affymetrix, Santa Clara, Calif. USA). The array was then scanned twice using a confocal laser scanner (GeneArray® Scanner, Agilent, Palo Alto, Calif. USA) resulting in one scanned image. This resulting “.dat-file” was processed using the MAS4 program (Affymetrix) into a “.cel-file”. The “.cel file” was captured and loaded into the Affymetrix GeneChip® Laboratory Information Management System (LIMS). The LIMS database is connected to a UNIX Sun Solaris server through a network filing system that allows for the average intensities for all probes cells (CEL file) to be downloaded into an Oracle database (NPGN). Raw data was converted to expression levels using a “target intensity” of 150. The data were evaluated for quality control and loaded in the GeneSpring® software 4.2.4 (Silicon Genetics, Calif. USA) for analysis.
On the human Affymetrix HGU95Av2 chip, probe sets for individual genes contain 20 oligonucleotide pairs, each composed of a “perfect match” 25-mer and a “mismatch” 25-mer differing from the “perfect” match oligonucleotide at a single base. After probe labelling, hybridization, and laser scanning, the expression level was estimated by averaging the differences in signal intensity measured by oligonucleotide pairs of a given probe (AvgDiff value). The fold changes and directions were calculated for selected genes, from the differences of the AvgDiff values between controls and treated.
To identify genes that were impacted by pasireotide, the dataset was initially filtered to exclude in a first wave of analysis, genes whose values were systematically in the lower expression ranges where the experimental noise is high (at least 80 in a number of experiments corresponding to the smallest number of replicas of any experimental point). In a second round of selection a threshold p-value of 0.05 (based on a t-test) identified differences between treated and control based on a two component error model (Global Error Model) and, whenever possible, with a stepdown correction for multi-hypothesis testing (Benjamini and Hochberg false discovery rate). […]

[1] = ↑ increase, treated vs controls
[2] = ↓ decrease, treated vs controls

Compound: NCCCCC1NC(=O)C(Cc2c[nH]c3ccccc23)NC(=O)C(c2ccccc2)NC(=O)C2CC(OC(=O)NCCN)CN2C(=O)C(Cc2ccccc2)NC(=O)C(Cc2ccc(OCc3ccccc3)cc2)NC1=O (stereo not drawn) [Pasireotide, cyclo[4-(NH2—C2H4—NH—CO—O)Pro-Phg-DTrp-Lys-Tyr(4-Bzl)-Phe]] (cyclo(F[Hyp]([CO-Ethylenediamine])[Phg]WKY(Bn)); configuration not given here)
- GR expression level, AvgDiff (range) (0.1 mg/animal/14day): 80 (70 to 360)
- IGF-2 expression level, AvgDiff (range) (0.1 mg/animal/14day): 269 (224 to 291)
- IGFBP2 expression level, AvgDiff (range) (0.1 mg/animal/14day): 4,476 (3,191 to 5,422)
- Insulin promoter factor 1, homeodomain transcription factor expression level, AvgDiff (range) (0.1 mg/animal/14day): 42 (23 to 52)
- 5-hydroxytryptamine (serotonin) receptor 6 RNA expression fold change [1]: receptor 6 ↑ x2.5
- Adenylyl cyclase-associated protein RNA expression fold change [1]: ↑ x1.5
- Arginine vasopressin receptor 2 RNA expression fold change [1]: receptor 2 ↑ x2.5
- B lymphoid tyrosine kinase RNA expression fold change [1]: ↑ x3.5
- Bone-derived GF RNA expression fold change [1]: ↑ x3
- Bruton agamma globulinaemia tyrosine kinase RNA expression fold change [1]: ↑ x1.5
- Butyrate response factor 2 (EGF-response factor 2) RNA expression fold change [1]: factor 2) ↑ x2
- Calcium/calmodulin-dependent protein kinase kinase 2, β RNA expression fold change [1]: ↑ x3
- Calmodulin 2 (phosphorylase kinase, δ) RNA expression fold change [1]: kinase, δ) ↑ x2
- Cdk 5, regulatory subunit 1 RNA expression fold change [1]: subunit 1 ↑ x2.5
- Cdki1A (p21/Cip1) RNA expression fold change [1]: (p21/Cip1) ↑ x6
- Corticosteroid binding globulin precursor RNA expression fold change [1]: precursor ↑ x2
- DAG kinase, α (80 kD) RNA expression fold change [1]: (80 kD) ↑ x3
- DAG kinase, δ (130 kD) RNA expression fold change [1]: ↑ x1.5
- Dopamine receptor D2 RNA expression fold change [1]: receptor D2 ↑ x3.5
- Dopamine receptor D3 RNA expression fold change [1]: receptor D3 ↑ x2
- EGFR (avian erythroblastic leukaemia viral (v-erb-b) oncogene homolog) RNA expression fold change [1]: homolog) ↑ x2
- FGFR2 (bacteria-expressed kinase, keratinocyte growth factor receptor, craniofacial dysplasia) RNA expression fold change [1]: dysplasia) ↑ x2
- Fas-activated serine/threonine kinase RNA expression fold change [1]: kinase ↑ x1.5
- GABA (A) receptor, γ2 precursor RNA expression fold change [1]: precursor ↑ x4
- GABA(A) receptor-associated protein RNA expression fold change [1]: ↑ x1.5
- GCSF RNA expression fold change [1]: GCSF ↑ x3.5
- Glucacon receptor RNA expression fold change [1]: receptor ↑ x5
- Glutamate receptor, metabotropic 4 RNA expression fold change [1]: ↑ x1.5
- Growth differentiation factor 1 RNA expression fold change [1]: factor 1 ↑ x3
- IFN regulatory factor 5 RNA expression fold change [1]: factor 5 ↑ x2.5
- IFN-induced leucine zipper protein RNA expression fold change [1]: ↑ x1.5
- IFN-inducible RNA-dependent protein kinase RNA expression fold change [1]: kinase ↑ x4
- IFNγ responsive transcript RNA expression fold change [1]: transcript ↑ x1.5
- IGFBP2 RNA expression fold change [1]: IGFBP2 ↑ x2
- IL2 R, γ chain, precursor RNA expression fold change [1]: precursor ↑ x2.5
- IP 5-phosphatase RNA expression fold change [1]: phosphatase ↑ x2
- Natriuretic peptide receptor A/guanylate cyclase A (atrionatriuretic peptide receptor A) RNA expression fold change [1]: A) ↑ x6
- Nck, Ash and PLC γ binding protein NAP4 RNA expression fold change [1]: ↑ x3.5
- PDGF, α polypeptide RNA expression fold change [1]: polypeptide ↑ x1.5
- PDGFR, α polypeptide RNA expression fold change [1]: polypeptide ↑ x2
- PI transfer protein RNA expression fold change [1]: protein ↑ x3.5
- PKC substrate 80K-H RNA expression fold change [1]: 80K-H ↑ x1.5
- PLA2, group IIA (platelets, synovial fluid) RNA expression fold change [1]: fluid) ↑ x5.5
- PLC, γ 1 (formerly subtype 148) RNA expression fold change [1]: 148) ↑ x2
- Rb binding protein RNA expression fold change [1]: protein ↑ x2.5
- Rb-like 2 (p130) RNA expression fold change [1]: (p130)↑ x3
- Receptor (calcitonin) activity modifying protein 1 precursor RNA expression fold change [1]: 1 precursor ↑ x1.5
- Solute carrier family 9 (sodium/hydrogen exchanger), isoform 3 regulatory factor 1 RNA expression fold change [1]: ↑ x11.5
- Solute carrier family 11 (Na+/phosphate symporters), member 1 RNA expression fold change [1]: member 1 ↑ x2.5
- TGFβ activated kinase-binding protein 1 RNA expression fold change [1]: protein 1 ↑ x2.5
- THR interacting protein 15 RNA expression fold change [1]: protein 15 ↑ x1.5
- THR sulfo transferase RNA expression fold change [1]: transferase ↑ x2.5
- TNF (ligand) superfamily, member 10 RNA expression fold change [1]: 10 ↑ x1.5
- δ sleep inducing peptide, immunoreactor RNA expression fold change [1]: ↑ x2.5
- 1-PI-4-phosphate 5-kinase isoform C RNA expression fold change [2]: ↓ x2
- ATPase, H+/K+ exchanging, beta polypeptide RNA expression fold change [2]: polypeptide ↓ x2
- BCL2-like 1 RNA expression fold change [2]: ↓ x3.5
- Ca++ channel, voltage-dependent, P/Q type, alpha 1A subunit RNA expression fold change [2]: subunit ↓ x2.5
- Cdk like-2 RNA expression fold change [2]: Cdk like-2 ↓ x2
- Cdki 2D (p19, inhibits CDK4) RNA expression fold change [2]: ↓ x2.5
- Death-associated protein 6 RNA expression fold change [2]: ↓ x2.5
- EGF (β-urogastrone) RNA expression fold change [2]: ↓ x2.5
- EGF-like repeats and discoidin I-like domains 3 RNA expression fold change [2]: domains 3 ↓ x1.5
- Fms-related tyrosine kinase 1(VEGF/vascular permeability factor receptor) RNA expression fold change [2]: receptor) ↓ x1.5
- GFR-bound protein 2 RNA expression fold change [2]: protein 2 ↓ x2.5
- Glycosylphosphatidylinositol specific phospholipase D1 RNA expression fold change [2]: ↓ x1.5
- IFN-related developmental regulator 2 RNA expression fold change [2]: regulator 2 ↓ x1.5
- IFN-stimulated protein, 15 kDa RNA expression fold change [2]: protein, 15 kDa ↓ x2
- IGF-2 RNA expression fold change [2]: IGF-2 ↓ x2.5
- Insulin promoter factor 1, homeodomain transcription factor RNA expression fold change [2]: ↓ x1.5
- PI transfer protein, β RNA expression fold change [2]: protein, β ↓ x1.5
- PKC, ι RNA expression fold change [2]: PKC, ι ↓ x1.5
- Rb 1 (including osteosarcoma) RNA expression fold change [2]: ↓ x2
- TGF, β1 RNA expression fold change [2]: TGF, β1 ↓ x1.5
- TGFβR III (betaglycan, 300 kδ) RNA expression fold change [2]: 300 kδ) ↓ x2
- TNF-α converting enzyme RNA expression fold change [2]: enzyme ↓ x2
